Common to all, as to assay: NCI-60 cell line screen, 48 h
Assay [1] has as its system MOLT-4 leukemia.
Assay [2] relates to UACC-257 melanoma.
The test system of assay [3] is HCC-2998 colon.
In assay [4] the test system is HOP-92 NSCLC.
Assay [5] deals with SK-MEL-5 melanoma.
The subject of assay [6] is NCI/ADR-RES ovarian.
Assay [7] deals with A549 NSCLC.
Assay [8] relates to HL-60(TB) leukemia.
Assay [9] deals with PC-3 prostate.
The test system of assay [10] is HCT-15 colon.
Assay [11] concerns SN12C renal.
Assay [12] relates to SF-268 CNS.
For assay [13], the system named is CCRF-CEM leukemia.
Assay [14] concerns MDA-MB-231 breast.
The test system of assay [15] is UACC-62 melanoma.
The test system of assay [16] is EKVX NSCLC.
Assay [17] deals with U251 CNS.
For assay [18], the system named is CAKI-1 renal.
The test system of assay [19] is IGROV1 ovarian.

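Where inhibition never reached the appropriate level, the endpoint shown equals the highest concentration tested. Otherwise, values were interpolated linearly from a five-concentration, 48-hour dose response in 96-well plates. TGI: total growth inhibition.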

Turning to `Fc1ccc(OCc2nc3cc(C(F)(F)F)ccc3nc2-c2ccccc2)cc1`, the TGI in [1] is more than 67.6 µM; in [2], more than 100 µM; in [3] it was more than 100 µM; in [4], more than 100 µM; in [5] it was more than 100 µM; in assay [6] it was more than 100 µM. Further, the TGI in assay [7] is more than 100 µM; in assay [8] it was more than 89.1 µM; in [9] it was more than 100 µM; in assay [10] it was more than 100 µM; in [11] it was more than 100 µM; in assay [12], more than 100 µM. In addition, the TGI was more than 93.1 µM in assay [13]; more than 100 µM in [14]; more than 100 µM in assay [15]; more than 100 µM in assay [16]; more than 100 µM in assay [17]; more than 100 µM in assay [18]. Also, the TGI in [19] was more than 100 µM.

For `O=C(O)C1=C(C(=O)O)N(c2ccncc2)C(c2ccco2)=CC1c1ccccc1[N+](=O)[O-]` (stereo not given), the TGI in [1] was 14.5 µM; in assay [2] it was 5.28 µM; in assay [3], 3.57 µM; in assay [4], 22.1 µM; in [5], more than 47.4 µM; in [6] it was more than 69.9 µM. Moreover, the TGI in assay [7] was found to be 35.9 µM; in assay [8] it was 7.85 µM; in [9] it was 27.9 µM; in [10], 4.25 µM; in assay [11], 29.1 µM; in assay [12], 36.1 µM. The TGI in [13] is more than 23.8 µM; in assay [14], 30.7 µM; in [15] it was 32.1 µM; in assay [16], 26.6 µM; in assay [17], 28 µM; in assay [18], 34.6 µM. The molecule also gave a TGI in assay [19] of 4.84 µM.

Take `CSCCC(N)P(C)(=O)O` (stereo not given): the TGI in assay [1], in assay [2], in assay [3], in [4], in assay [5] and in assay [6] was more than 100 µM each time. Besides, the TGI in [7], in [8], in assay [9], in assay [10], in assay [11] and in [12] was more than 100 µM in each case. Further, the TGI in assay [13], in assay [14], in assay [15], in assay [16], in [17] and in assay [18] was more than 100 µM throughout. This molecule showed a TGI in assay [19] of more than 100 µM.

In the case of `NCCCCN(CCCN)C(=O)c1ccccc1`, the TGI in [1], in assay [2], in assay [3], in assay [4], in [5] and in assay [6] was more than 100 µM each time. For the same molecule, the TGI in assay [7], in assay [8], in [9], in [10], in [11] and in assay [12] was more than 100 µM in each case. Further, the TGI in [13], in assay [14], in assay [15], in assay [16], in assay [17] and in assay [18] was more than 100 µM throughout. The molecule further registered a TGI in assay [19] of more than 100 µM.

For `CCCCCC(=O)Nc1nc[nH]c1C(N)=O`, the TGI in assay [1], in assay [2], in [3], in [4], in assay [5] and in assay [6] was more than 100 µM in each case. Moreover, the TGI in assay [7], in assay [8], in [9], in [10], in assay [11] and in [12] was more than 100 µM throughout. Also, the TGI in [13], in [14], in [15], in assay [16], in assay [17] and in assay [18] was more than 100 µM each time. The molecule also yielded a TGI in assay [19] of more than 100 µM.

For the molecule `CC(=O)Nc1sc([N+](=O)[O-])cc1S(=O)(=O)c1ccc(Cl)cc1`, the TGI in assay [1] was more than 50.2 µM; in assay [2] it was 16.8 µM; in assay [3], 8.64 µM; in assay [4] it was 12.7 µM; in assay [5] it was 1.95 µM; in assay [6], 64 µM. Besides, the TGI in assay [7] was more than 54.6 µM; in assay [8] it was more than 23.5 µM; in [9] it was 10.6 µM; in assay [10], more than 95 µM; in [11], more than 100 µM; in [12], more than 100 µM. The TGI is more than 100 µM in assay [13]; more than 29.6 µM in assay [14]; 22.4 µM in [15]; more than 100 µM in [16]; more than 35.5 µM in assay [17]; more than 20.8 µM in assay [18]. Besides, the TGI in assay [19] is more than 100 µM.

Regarding `Cn1cc(-c2cnc(-c3cn(C)c4ccccc34)cn2)c2ccccc21`, the TGI is more than 100 µM in assay [1]; more than 100 µM in [2]; 41.7 µM in [3]; more than 100 µM in assay [4]; 25.3 µM in [5]; 40.7 µM in assay [6]. In addition, the TGI in assay [7] is more than 100 µM; in assay [8] it was 8.66 µM; in [9], more than 100 µM; in [10], 47.4 µM; in assay [11], more than 100 µM; in assay [12], more than 87.5 µM. The TGI in assay [13] is 3.58 µM; in [14] it was more than 96.6 µM; in assay [15] it was 31.3 µM; in assay [16] it was more than 100 µM; in [17], 40.2 µM; in assay [18] it was more than 100 µM. Moreover, the TGI in assay [19] is more than 50.5 µM.

Take `CCOC(=O)C1=C(C)OC(=O)[C@@]2(OC)C=C(Cl)[C@@]12C`: the TGI in [1], in [2], in assay [3], in assay [4], in [5] and in assay [6] was more than 100 µM in each case. Moreover, the TGI is more than 100 µM in assay [7]; 91 µM in [8]; more than 100 µM in assay [9]; more than 100 µM in [10]; more than 100 µM in [11]; more than 100 µM in assay [12]. Also, the TGI in assay [13], in assay [14], in assay [15], in [16], in [17] and in assay [18] was more than 100 µM throughout. Further, the TGI in assay [19] is more than 100 µM.

`Cc1nn(C(=O)c2ccc(Cl)cc2)c2c1C(c1cccc([N+](=O)[O-])c1)SC(N)=N2` (stereo not given): the TGI in assay [1], in assay [2], in [3], in [4], in [5] and in assay [6] was more than 10 µM in each case. Moreover, the TGI in assay [7] is more than 10 µM; in [8], more than 10 µM; in assay [9] it was more than 10 µM; in assay [10], 7.51 µM; in [11], more than 10 µM; in assay [12], more than 10 µM. Further, the TGI in assay [13], in assay [14], in assay [15], in [16], in [17] and in [18] was more than 10 µM throughout. In [19], this molecule came in with a TGI of more than 10 µM.

With `O=C(CCCN1CCC2(CC1)NC(=O)c1ccccc1O2)c1ccc(F)cc1`, the TGI in [1], in assay [2], in assay [3], in assay [4], in assay [5] and in assay [6] was more than 100 µM throughout. Also, the TGI in [7], in assay [8], in assay [9], in assay [10], in assay [11] and in [12] was more than 100 µM in each case. In addition, the TGI in [13], in [14], in assay [15], in assay [16], in assay [17] and in assay [18] was more than 100 µM throughout. In addition, the TGI in assay [19] is more than 100 µM.

As for `Nc1c(-c2nc3ccccc3o2)sc(=S)n1-c1ccc(Cl)cc1`, the TGI in assay [1] is more than 100 µM; in assay [2], 95.6 µM; in [3] it was more than 100 µM; in assay [4], 63.3 µM; in [5], 56.9 µM; in assay [6] it was 74.1 µM. For the same molecule, the TGI in assay [7] was 39.2 µM; in assay [8] it was more than 100 µM; in assay [9], 82.1 µM; in assay [10], more than 100 µM; in assay [11], more than 100 µM; in assay [12], 33.9 µM. Besides, the TGI in [13] was more than 100 µM; in assay [14], 64.5 µM; in assay [15], 27.8 µM; in assay [16] it was more than 100 µM; in assay [17] it was 37.5 µM; in assay [18] it was 53.4 µM. In assay [19], this molecule returned a TGI of 46.3 µM.

For the molecule `N/C(=N\N=C\c1c[nH]c2cc(C(F)(F)F)ccc2c1=O)NO`, the TGI in assay [1], in [2], in assay [3], in assay [4], in assay [5] and in assay [6] was more than 10 µM each time. Also, the TGI in assay [7], in [8], in [9], in assay [10], in [11] and in assay [12] was more than 10 µM each time. Further, the TGI in [13], in assay [14], in [15], in [16], in [17] and in assay [18] was more than 10 µM each time. In addition, the TGI in assay [19] was more than 10 µM.

`CN1C(=O)N/C(=C\c2ccc(S(=O)(=O)N/N=C\C(O)C(O)C(O)CO)cc2)C1=O` (stereo not given): the TGI in [1], in [2], in [3], in assay [4], in assay [5] and in assay [6] was more than 100 µM throughout. Further, the TGI in [7], in assay [8], in [9], in assay [10], in [11] and in [12] was more than 100 µM in each case. The TGI in [13], in [14], in assay [15], in [16], in assay [17] and in [18] was more than 100 µM throughout. In assay [19], this molecule registered a TGI of more than 100 µM.

In the case of `CCCCOC(=O)NC(Nc1ccc(S(=O)(=O)Nc2ccc(OC)nn2)cc1)(C(F)(F)F)C(F)(F)F`, the TGI in assay [1], in assay [2], in [3], in assay [4], in assay [5] and in assay [6] was more than 100 µM in each case. The TGI in assay [7], in assay [8], in [9], in assay [10], in assay [11] and in [12] was more than 100 µM throughout. For the same molecule, the TGI in [13], in assay [14], in assay [15], in [16], in [17] and in assay [18] was more than 100 µM each time. The same molecule yielded a TGI in assay [19] of more than 100 µM.

As for `Cc1cnc(-c2c[nH]c3ccccc23)nc1-c1c[nH]c2ccccc12`, the TGI in assay [1] is 28.4 µM; in [2], 20.5 µM; in assay [3] it was 15.8 µM; in assay [4], 7.21 µM; in assay [5], 20.5 µM; in [6], more than 100 µM. Further, the TGI was found to be 20.2 µM in assay [7]; 25.1 µM in [8]; 14.2 µM in assay [9]; 27 µM in assay [10]; 8.53 µM in assay [11]; 35.6 µM in [12]. In addition, the TGI came out at 4.92 µM in assay [13]; 7.78 µM in [14]; 17.4 µM in assay [15]; 19.3 µM in assay [16]; 19.7 µM in [17]; 23.2 µM in [18]. In assay [19], this molecule had a TGI of 14.8 µM.

The record behind these values is PubChem BioAssay (NCI).
